Experimental data: patent publication US20250019350A1, “SYNTHESIS OF THE PROSTATE SPECIFIC MEMBRANE ANTIGEN (PSMA) RADIOLABELED INHIBITOR [18F]DCFPYL” (Progenics Pharmaceuticals, Inc, priority 2023, published 2025)

What was measured:
[1] = Retention/recovery of [19F]DCFPyL on the HLB solvent exchange cartridge as a function of pH (load, wash, product samples); format: physicochemical
Procedure: The goal of this study was to characterize the impact of pH on the retention of [^18F]DCFPyL on the HLB solvent exchange cartridge. […] The pH of one solution was adjusted to 2 and a second to 4 by adding 1N HCl. A third solution was used without adjusting its native pH of 7.2. Using a BD syringe, 10 mL of each solution was spiked with [^19F]DCFPyL (50 μg) by adding 0.5 mL of a 100 μg/mL stock solution. Each spiked solution was loaded onto a HLB cartridge at a rate of approximately 2 mL/min. […] The eluent from each HLB cartridge was individually collected and identified as the “wash solution.” Each HLB cartridge was then individually eluted with 1 mL of ethanol, the samples collected and are identified as the “product sample.” The load solution and wash solution samples were analyzed using a drug product chemical impurity assay after a 1 to 10 mL dilution with saline, while the ethanolic product samples were analyzed following a 0.5 to 10 dilution with saline.
The goal of this study was to characterize the impact of pH on the retention of ^18F-DCFPyL on the HLB solvent exchange cartridge. […] The pH of one solution was adjusted to 2 and a second to 4 by adding 1N HCl. A third solution was used without adjusting its native pH of 7.2. At this pH the solution will be mainly sodium ascorbate. Using a BD syringe, 10 mL of each solution was spiked with ^19F-DCFPyL (50 μg) by adding 0.5 mL of a 100 μg/mL stock solution. Each spiked solution was loaded onto an HLB cartridge at a rate of approximately 2 mL/min and the solution collected after the HLB column is identified as the load solution. […] Each HLB cartridge was then individually eluted with 1 mL of ethanol, the solution collected after the HLB column is identified as the product sample. The load solution and wash solution samples were analyzed using the drug product chemical impurity assay after a 1 to 10 mL dilution with saline, while the ethanolic product samples were analyzed following a 0.5 to 10 mL dilution with saline.

[2] = HPLC/UV (264 nm) chemical impurity assay; ascorbic acid related impurity; format: physicochemical; conditions: 5 mg/mL, pH 6 ascorbic acid solution with free 18F (129 mCi/mL)
Procedure: Analytical HPLC method was used. The method employs UV detection at 264 nm for chemical impurities, and an Eckert & Ziegler model B-FC-1000 gamma detector for radiochemical assays.
Since the peak has not been previously observed in preparations in the absence of ascorbic acid it is likely ascorbic acid related and was further investigated. A decayed sample from the lot produced was analyzed further and confirmed the presence of the peak, FIG. 35. […] The sample was assayed for chemical impurities at T=0, 4, 10 and 24 hours when held inverted at ambient conditions. […] The impurity only formed with radioactivity exposure but not when stored in light or dark at ambient conditions (see FIG. 37).

[3] = cited from earlier work
[4] = @ 10 hr; ascorbic acid at 10 mg/mL (Fawdry 2007); cited from earlier work
[5] = HLB pH 2 Product, first Ethanol elution
[6] = HLB pH 2 Product, second Ethanol elution
[7] = HLB pH 2 Product, third Ethanol elution

## O=C(O)CC[C@H](NC(=O)N[C@@H](CCCCNC(=O)c1ccc(F)nc1)C(=O)O)C(=O)O [Lot 19F-DCFPyL]
[1]; 10 mg/mL ascorbic acid, pH 7.2
  retention by the HLB cartridge: not meaningfully retained
[1]; HLB Saline pH 7 Rinse
  19F-DCFPyL recovered (%): 0.0%
  μg of 19F-DCFPyL recovered: Not Detected
[1]; HLB pH 2 Load
  19F-DCFPyL recovered (%): 0.0%
  μg of 19F-DCFPyL recovered: Not Detected
[1]; [5]
  19F-DCFPyL recovered (%): 69.5%
  μg of 19F-DCFPyL recovered: 35.423 µg
[1]; [6]
  19F-DCFPyL recovered (%): 21.5%
  μg of 19F-DCFPyL recovered: 10.946 µg
[1]; [7]
  19F-DCFPyL recovered (%): 7.1%
  μg of 19F-DCFPyL recovered: 3.629 µg
[1]; HLB pH 2 Rinse
  19F-DCFPyL recovered (%): 0.0%
  μg of 19F-DCFPyL recovered: Not Detected
[1]; HLB pH 4 Load
  19F-DCFPyL recovered (%): 22.0%
  μg of 19F-DCFPyL recovered: 10.504 µg
[1]; HLB pH 4 Product
  19F-DCFPyL recovered (%): 57.7%
  μg of 19F-DCFPyL recovered: 27.989 µg
[1]; HLB pH 4 Rinse
  19F-DCFPyL recovered (%): 0.0%
  μg of 19F-DCFPyL recovered: Not Detected
[1]; HLB pH 7 Load
  19F-DCFPyL recovered (%): 87.4%
  μg of 19F-DCFPyL recovered: 38.239 µg
[1]; HLB pH 7 Product
  19F-DCFPyL recovered (%): 0.0%
  μg of 19F-DCFPyL recovered: Not Detected
[1]; pH 2
  19F-DCFPyL in the load or wash samples: not detected
[1]; pH 2 Control
  μg of 19F-DCFPyL recovered: 50.976 µg
[1]; pH 4
  19F-DCFPyL in the product sample, % of the total amount recovered from all samples: approximately 68%
  19F-DCFPyL recovered in the load sample: approximately 31%
  19F-DCFPyL recovered in the load sample (mass): < 1 µg
[1]; pH 4 Control
  μg of 19F-DCFPyL recovered: 47.665 µg
[1]; pH 7 Control
  μg of 19F-DCFPyL recovered: 43.759 µg
[1]; pH 7.2
  19F-DCFPyL recovered in the wash samples: 3.8 µg/mL

## O=C1O[C@H]([C@@H](O)CO)C(O)=C1O [ascorbic acid]
[2]; T = 0 hours, ambient
  4.6 min RT peak (HPLC UV): not present
[2]; T = 24 hours, relative response factor of 1 to [19F]-DCFPyL standard
  4.6 min RT peak (HPLC UV), approximate concentration: ~1.75 µg/mL
[3]
  pKa: about 4.2

## OC[C@H]1O[C@@H](O)[C@H]([18F])[C@@H](O)[C@@H]1O [FDG]
[4]
  de-fluorination: less than 2%
